The values that follow come from ChEMBL document CHEMBL1134412, “(4-Piperidin-1-yl)phenyl amides: potent and selective human beta(3) agonists” (J Med Chem, 2001).

Assay [1] has as its target T1, Beta-2 adrenergic receptor (Homo sapiens, UniProt P07550). Briefly: Increased cAMP levels of Chinese hamster ovary (CHO) cells expressing human beta 2 adrenergic receptors. In kind it is functional, cell-based.
Target sequence in this assay (P07550 whole entry): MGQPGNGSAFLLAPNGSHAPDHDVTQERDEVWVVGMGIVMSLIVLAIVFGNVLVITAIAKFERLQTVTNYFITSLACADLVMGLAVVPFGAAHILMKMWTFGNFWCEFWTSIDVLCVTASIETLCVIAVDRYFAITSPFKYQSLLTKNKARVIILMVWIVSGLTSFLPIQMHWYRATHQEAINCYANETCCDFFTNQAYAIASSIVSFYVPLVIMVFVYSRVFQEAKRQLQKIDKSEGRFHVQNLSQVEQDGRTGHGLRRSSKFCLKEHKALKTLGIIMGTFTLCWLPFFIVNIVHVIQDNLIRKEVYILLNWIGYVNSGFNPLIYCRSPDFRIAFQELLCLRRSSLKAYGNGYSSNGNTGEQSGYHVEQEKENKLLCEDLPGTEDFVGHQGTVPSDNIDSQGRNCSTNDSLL
The target of assay [2] is T2, Beta-3 adrenergic receptor (Homo sapiens, UniProt P13945). Briefly: In vitro increase in cAMP levels in Chinese hamster ovary cells expressing the human cloned beta 3 Adrenergic receptor. In kind it is functional, cell-based.
Target sequence in this assay (P13945 whole entry): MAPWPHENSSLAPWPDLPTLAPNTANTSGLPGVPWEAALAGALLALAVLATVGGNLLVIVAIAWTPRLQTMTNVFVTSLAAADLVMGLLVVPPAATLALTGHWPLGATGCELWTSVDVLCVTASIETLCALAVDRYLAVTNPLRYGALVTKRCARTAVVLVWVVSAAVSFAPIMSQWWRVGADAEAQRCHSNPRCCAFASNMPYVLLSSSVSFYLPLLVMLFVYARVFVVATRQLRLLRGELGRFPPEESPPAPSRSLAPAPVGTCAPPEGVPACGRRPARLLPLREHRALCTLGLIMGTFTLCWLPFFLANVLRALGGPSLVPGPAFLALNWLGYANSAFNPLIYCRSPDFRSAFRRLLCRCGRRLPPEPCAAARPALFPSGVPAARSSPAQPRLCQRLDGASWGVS
Assay [3] deals with T2, Beta-3 adrenergic receptor. Briefly: Compound was tested for increased thermogenesis using beta-3 human transgenic mice.
Target sequence in this assay (P13945 whole entry, looked up): as the sequence (P13945 whole entry) above
Assay [4] addresses T3, Beta-1 adrenergic receptor (Homo sapiens, UniProt P08588). Briefly: Increased cAMP levels of Chinese hamster ovary (CHO) cells expressing human beta 1 Adrenergic receptor. In kind it is functional, cell-based. (In general: cAMP levels reflect the balance of adenylyl cyclase and phosphodiesterase activity.)
Target sequence in this assay (P08588 whole entry): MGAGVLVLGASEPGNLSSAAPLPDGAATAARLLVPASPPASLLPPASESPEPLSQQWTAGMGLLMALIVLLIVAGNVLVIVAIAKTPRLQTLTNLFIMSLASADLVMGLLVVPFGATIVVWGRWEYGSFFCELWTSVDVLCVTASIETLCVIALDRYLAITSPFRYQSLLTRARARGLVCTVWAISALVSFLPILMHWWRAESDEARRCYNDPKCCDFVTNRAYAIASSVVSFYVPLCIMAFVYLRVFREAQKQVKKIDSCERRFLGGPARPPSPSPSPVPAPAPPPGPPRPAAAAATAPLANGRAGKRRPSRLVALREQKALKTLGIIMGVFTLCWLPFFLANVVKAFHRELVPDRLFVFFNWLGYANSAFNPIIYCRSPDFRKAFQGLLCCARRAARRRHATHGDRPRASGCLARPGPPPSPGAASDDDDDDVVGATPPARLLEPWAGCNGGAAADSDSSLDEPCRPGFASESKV
In assay [5] the target is T3, Beta-1 adrenergic receptor. Nature of the assay: Inhibition of I-iodocyanopindolol binding to human beta 1 adrenergic receptors.
Target sequence in this assay (P08588 whole entry): as above
In assay [6] the target is T1, Beta-2 adrenergic receptor.
Target sequence in this assay (P07550 whole entry): as the sequence (P07550 whole entry) above
Description: Inhibition of I-iodocyanopindolol binding to human beta 2 adrenergic receptors
Assay [7] addresses T3, Beta-1 adrenergic receptor. Briefly: In vitro activity to increase cAMP levels in Chinese hamster ovary (CHO) cells expressing the cloned human beta 1 Adrenergic receptor. In kind it is cell-based.
Target sequence in this assay (P08588 whole entry): as the sequence (P08588 whole entry) above
For assay [8], the target named is T1, Beta-2 adrenergic receptor. Nature of the assay: Intrinsic activity to increase cAMP levels in Chinese hamster ovary (CHO) cells expressing the cloned human beta 2 adrenergic receptors. The class given is cell-based.
Target sequence in this assay (P07550 whole entry, looked up): as the sequence (P07550 whole entry) above
Assay [9] concerns the target T2, Beta-3 adrenergic receptor. Briefly: Intrinsic activity to increase cAMP levels in Chinese hamster ovary (CHO) cells expressing the cloned human beta 3 Adrenergic receptor. The class given is cell-based.
Target sequence in this assay (P13945 whole entry, looked up): as the sequence (P13945 whole entry) above
The target in assay [10] is T3, Beta-1 adrenergic receptor. Nature of the assay: Intrinsic activity to increase cAMP levels in Chinese hamster ovary (CHO) cells expressing the cloned human beta 1 Adrenergic receptor. The class given is cell-based.
Target sequence in this assay (P08588 whole entry, looked up): as the sequence (P08588 whole entry) above

On to `CS(=O)(=O)Nc1cc([C@@H](O)CNC2CCN(c3ccc(C(=O)NCC(=O)O)cc3)CC2)ccc1O`, for which the EC50 in assay [1] came to 40 nM; in assay [2], 60 nM; in assay [4] it was 50 nM. The compound also yielded a Thermogenesis in assay [3] of 51%. Also, the inhibitory constant (Ki) in assay [5] was greater than 100000 nM; in assay [6], 11600 nM.

Take `CS(=O)(=O)Nc1cc([C@@H](O)CNC2CCN(c3ccc(C(=O)N4CCC[C@H]4C(=O)O)cc3)CC2)ccc1O`: in [1], the concentration giving a half-maximal response (EC50) was 20 nM.

With `CC(C)[C@H](NC(=O)c1ccc(N2CCC(NC[C@H](O)c3ccc(O)c(NS(C)(=O)=O)c3)CC2)cc1)C(=O)O`, the concentration for a half-maximal effect (EC50) in assay [1] was greater than 10000 nM; in assay [2], 26 nM; in assay [4] it was greater than 10000 nM. In addition, the figures for the Ki in assay [5] and in assay [6] were greater than 100000 nM and 3600 nM, respectively.

Take `CS(=O)(=O)Nc1cc([C@@H](O)CNC2CCN(c3ccc(C(=O)NCCC(=O)O)cc3)CC2)ccc1O`: in assay [2], the concentration for a half-maximal effect (EC50) was 260 nM.

Regarding `CS(=O)(=O)Nc1cc([C@@H](O)CNC2CCN(c3ccc(CC(=O)O)cc3)CC2)ccc1O`, in assay [2], the EC50 amounted to 270 nM.

As to `CS(=O)(=O)Nc1cc([C@@H](O)CNC2CCN(c3ccc(C(N)=O)cc3)CC2)ccc1O`, the EC50 in [1] worked out at 270 nM; in assay [2], 20 nM; in assay [4], 1200 nM.

With `CS(=O)(=O)Nc1cc([C@@H](O)CNC2CCN(c3ccc(C(=O)O)cc3)CC2)ccc1O`, the results for the 50% effective concentration (EC50) in assay [1], in assay [2] and in assay [7] were greater than 50000 nM, 220 nM and 48700 nM, respectively.

For the compound `CS(=O)(=O)Nc1cc([C@@H](O)CNC2CCN(c3ccc(C(=O)N[C@@H](Cc4ccccc4)C(=O)O)cc3)CC2)ccc1O`, the half-maximal effective concentration (EC50) in [1] worked out at 1500 nM; in assay [4], 43700 nM. Also, the Ki in [5] was greater than 100000 nM; in assay [6], 480 nM.

With `CC(C)C[C@H](NC(=O)c1ccc(N2CCC(NC[C@H](O)c3ccc(O)c(NS(C)(=O)=O)c3)CC2)cc1)C(=O)O`, the 50% effective concentration (EC50) was 80 nM in assay [1], 8 nM in assay [2] and 60 nM in assay [4]. This compound yielded a Thermogenesis in assay [3] of 53%. Besides, the Ki was greater than 100000 nM in assay [5] and 3400 nM in [6].

As to `CCCCCCNC(=O)Nc1ccc(S(=O)(=O)Nc2ccc(CCNC[C@H](O)COc3ccc(O)cc3)cc2)cc1` [L-755507], the EC50 came to 20 nM in [1] and 330 nM in assay [7]. Besides, the Thermogenesis in [3] is 28%. For the same compound, the inhibition constant Ki in assay [5] is 570 nM; in assay [6] it was 160 nM.

For `CCCCN(c1ccc(N2CCC(NC[C@H](O)c3ccc(O)c(NS(C)(=O)=O)c3)CC2)cc1)S(=O)(=O)CC(=O)O`, the EC50 stood at 5000 nM in assay [1], 4 nM in assay [2] and 2000 nM in assay [7]. In addition, the IA in assay [8] came to 0.45; in assay [9], 1; in assay [10], 0.51.

On to `CS(=O)(=O)Nc1cc([C@@H](O)CNC2CCN(c3ccc(NC(=O)CC(=O)O)cc3)CC2)ccc1O`, for which the figures for the EC50 in [1], in assay [2] and in assay [4] were 900 nM, 130 nM and 100 nM, respectively.

Consider `CS(=O)(=O)Nc1cc([C@@H](O)CNC2CCN(c3ccc(COCC(=O)O)cc3)CC2)ccc1O`, for which the figures for the EC50 in assay [1], in assay [2] and in [4] were 6000 nM, 66 nM and 1600 nM, respectively.

`CCCCN(CC(=O)O)C(=O)c1ccc(N2CCC(NC[C@H](O)c3ccc(O)c(NS(C)(=O)=O)c3)CC2)cc1`: the EC50 was 10500 nM in [1], 36 nM in assay [2] and greater than 1000 nM in assay [4].

As for `CS(=O)(=O)Nc1cc([C@@H](O)CNC2CCN(c3ccc(CCC(=O)O)cc3)CC2)ccc1O`, the figures for the EC50 in [1], in assay [2] and in assay [4] were 4700 nM, 39 nM and 9800 nM, respectively.

On to `CCOC(=O)CNC(=O)c1ccc(N2CCC(NC[C@H](O)c3ccc(O)c(NS(C)(=O)=O)c3)CC2)cc1`, for which the EC50 in [1] turned out to be 3200 nM; in assay [2] it was 15 nM; in [4] it was 4500 nM.

For `CS(=O)(=O)Nc1cc([C@@H](O)CNC2CCN(c3ccc(C(=O)N[C@@H](CCC(=O)O)C(=O)O)cc3)CC2)ccc1O`, in assay [2], the EC50 is 92 nM.

Take `CCCCN(C(=O)CC(=O)O)c1ccc(N2CCC(NC[C@H](O)c3ccc(O)c(NS(C)(=O)=O)c3)CC2)cc1`: the figures for the concentration giving a half-maximal response (EC50) in [1], in [2] and in [4] were 60 nM, 9 nM and 40 nM, respectively. The same compound showed a Thermogenesis in assay [3] of 35%. For the same compound, the Ki in [5] and in [6] was greater than 100000 nM throughout.

Broadly, the EC50 is the concentration needed to bring the measured effect to its halfway point. Broadly, the Ki is a measure of affinity in units of concentration, obtained from inhibition or displacement. Read a high Ki as weaker binding.
